In patent US11352394B2, “Cyclic cell penetrating peptides comprising beta-hairpin motifs and methods of making and using thereof” (Ohio State Innovation Foundation, priority 2016, dated 2022):
Values joined by “and” are separate entries in the source; they are usually repeats but may differ in a detail not shown here. Identical values can stand only once. Bridge positions count the residues as written; N and C are the ends. Square brackets hold non-standard residues; d marks the D form. Ends that are not written are not given here. 2Nal = N[C@@H](Cc1ccc2ccccc2c1)C(=O)O; d2Nal = N[C@H](Cc1ccc2ccccc2c1)C(=O)O; NF = naphthofluorescein; Dap = NC[C@H](N)C(=O)O

System: HeLa cells
Test: Cellular (cytosolic) uptake of NF-labeled peptides by flow cytometry (MFI)
Type: cell-based
Details: HeLa cells
Experimental: HeLa cells were treated with 5 μM peptide for 2 h, and their cell uptake efficiencies were determined by flow cytometry analysis. The mean fluorescence intensity (MFI) values derived from cytometry analyses reflect the amounts of peptides inside the cytosol and nucleus, whereas any NF-labeled peptide entrapped inside the acidic endosomes are invisible under the experimental conditions (Id.; Qian, Z et al. Chem. Commun. 2015, 51, 2162-2165).
The binding affinity of BH23 (unlabeled) for the Grb2 SH2 domain was then determined by examining its ability to compete with the FAM-labeled ligand for binding to the Grb2 SH2 domain by fluorescence polarization (FP). […] Next, BH23 was labeled with NF at the Asn side chain through a miniPEG-Lys linker and its cytosolic entry efficiency was quantitated by treating HeLa cells with 5 μM of the labeled peptide for 2 h before flow cytometry analysis. […] BH23 was also similarly labeled at the Asn side chain with FAM and its entry into HeLa cells was examined by live-cell confocal microscopy. […] Two control peptides (BH24 and BH25) were also prepared for cellular assays. BH24 and BH25 are structurally similar to BH23, except that BH24 contained a Tyr instead of the pY residue (FIG. 11), whereas in BH25 the two hydrophobic residues critical for cellular uptake (Nal-arg) were replaced with Ala-ala (FIG. 12).
BHT1 and BHT2 were labeled with naphthofluorescein (NF) and their cytosolic uptake into HeLa cells was determined by flow cytometry (Table 10).
Additional cell penetrating compounds were prepared and tested for cytosolic delivery. In these compounds there was no beta-hairpin turn creating moiety.

Substance	Cytosolic entry efficiency, fold higher than CPP1 [fold]
cyclo(A-E-T-G-E-F-L-F-Φ-r-p-P-R-R-F-L-Q)-miniPEG-K(NF) (cyclo(AETGEFLF[2Nal][dR][dP]PRRFLQ); not fully specified (residue 17); printed as cyclo(A-E-T-G-E-F-L-F-Φ-r-p-P-R-R-F-L-Q)-miniPEG-K(NF)) [BH12]	5.8

Same assay, conditions: HeLa cells, 5 μM NF-labeled peptide, 2 h, flow cytometry; relative to CPP1 (100%)

Substance	Cellular Uptake (MFINF, %) [%]
cyclo(D-A-F-Φ-r-p-P-R-R-F-D-A-D-Q)-miniPEG-K(NF) (cyclo(DAF[2Nal][dR][dP]PRRFDADQ); not fully specified (residue 14); printed as cyclo(D-A-F-Φ-r-p-P-R-R-F-D-A-D-Q)-miniPEG-K(NF)) [BH10]	44 ± 19
cyclo(R-A-F-Φ-r-p-P-R-R-F-R-A-R-Q)-miniPEG-K(NF) (cyclo(RAF[2Nal][dR][dP]PRRFRARQ); not fully specified (residue 14); printed as cyclo(R-A-F-Φ-r-p-P-R-R-F-R-A-R-Q)-miniPEG-K(NF)) [BH9]	104 ± 27
cyclo(A-A-F-Φ-r-p-P-R-R-F-A-A-A-Q)-miniPEG-K(NF) (cyclo(AAF[2Nal][dR][dP]PRRFAAAQ); not fully specified (residue 14); printed as cyclo(A-A-F-Φ-r-p-P-R-R-F-A-A-A-Q)-miniPEG-K(NF)) [BH6]	431 ± 169
cyclo(S-A-S-F-Φ-r-p-P-R-R-F-S-A-S-A-Q)-miniPEG-K(NF) (cyclo(SASF[2Nal][dR][dP]PRRFSASAQ); not fully specified (residue 16); printed as cyclo(S-A-S-F-Φ-r-p-P-R-R-F-S-A-S-A-Q)-miniPEG-K(NF)) [BH11]	245 ± 16
cyclo(A-A-F-φ-R-p-P-R-R-F-A-A-A-Q)-miniPEG-K(NF) (cyclo(AAF[d2Nal]R[dP]PRRFAAAQ); not fully specified (residue 14); printed as cyclo(A-A-F-φ-R-p-P-R-R-F-A-A-A-Q)-miniPEG-K(NF)) [BH8]	235
cyclo(A-E-T-G-E-F-L-F-Φ-r-p-P-R-R-F-L-Q)-miniPEG-K(NF) (cyclo(AETGEFLF[2Nal][dR][dP]PRRFLQ); not fully specified (residue 17); printed as cyclo(A-E-T-G-E-F-L-F-Φ-r-p-P-R-R-F-L-Q)-miniPEG-K(NF)) [BH12]	575 ± 239

Same assay, conditions: HeLa cells, 5 μM peptide, 2 h, DMEM with 10% FBS and 1% ABS; relative to CPP9 (100%)

Substance	Cellular Uptake (MFI^NF, %) of β-hairpin transporters
cyclo(AFΦPRRFQ)-miniPEG-K(NF) [BHT1]	88% and 88 ± 11%

Same assay, conditions: HeLa cells, NF-labeled peptide, flow cytometry; relative to CPP1 (100%)

Substance	Cellular Uptake (MFI^NF, %) of Keap1-Nrf2 inhibitors [%]
cyclo[F-F-Φ-r-p-P-R-R-F-Q-K(NF)-D-P-E-T-G-E] (cyclo(FF[2Nal][dR][dP]PRRFQK(NF)DPETGE)) [BH20]	122.4
cyclo[F-Φ-r-p-P-R-R-F-K(NF)-D-P-E-T-G-E] (cyclo(F[2Nal][dR][dP]PRRFK(NF)DPETGE)) [BH21]	44.6
cyclo[F-F-Φ-r-P-p-R-R-F-Q-K(NF)-D-P-E-T-G-E] (cyclo(FF[2Nal][dR]P[dP]RRFQK(NF)DPETGE)) [BH22]	56.9

Same assay, conditions: HeLa cells, flow cytometry

Substance	Cellular entry / delivery efficiency (in words)
cyclo(D-A-F-Φ-r-p-P-R-R-F-D-A-D-Q)-miniPEG-K(NF) (cyclo(DAF[2Nal][dR][dP]PRRFDADQ); not fully specified (residue 14); printed as cyclo(D-A-F-Φ-r-p-P-R-R-F-D-A-D-Q)-miniPEG-K(NF)) [BH10]	lowest delivery efficiency
cyclo[F-F-Φ-r-p-P-R-R-F-Q-K(NF)-D-P-E-T-G-E] (cyclo(FF[2Nal][dR][dP]PRRFQK(NF)DPETGE)) [BH20]	less efficiently than BH6 and BH12
cyclo[F-Φ-r-p-P-R-R-F-K(NF)-D-P-E-T-G-E] (cyclo(F[2Nal][dR][dP]PRRFK(NF)DPETGE)) [BH21]	less efficiently than BH6 and BH12

Same assay, conditions: HeLa cells; -L-Pro-D-Pro- instead of -D-Pro-L-Pro-

Substance	Cellular entry, fold less efficient than BH20 [fold]
cyclo[F-F-Φ-r-P-p-R-R-F-Q-K(NF)-D-P-E-T-G-E] (cyclo(FF[2Nal][dR]P[dP]RRFQK(NF)DPETGE)) [BH22]	~2

Same assay, conditions: HeLa cells; D-amino acid diastereomers of BH4

Substance	Improvement of cytosolic entry efficiency relative to BH4 [fold]
cyclo(A-A-F-Φ-r-p-P-R-R-F-A-A-A-Q)-miniPEG-K(NF) (cyclo(AAF[2Nal][dR][dP]PRRFAAAQ); not fully specified (residue 14); printed as cyclo(A-A-F-Φ-r-p-P-R-R-F-A-A-A-Q)-miniPEG-K(NF)) [BH6]	6
cyclo(A-A-F-φ-R-p-P-R-R-F-A-A-A-Q)-miniPEG-K(NF) (cyclo(AAF[d2Nal]R[dP]PRRFAAAQ); not fully specified (residue 14); printed as cyclo(A-A-F-φ-R-p-P-R-R-F-A-A-A-Q)-miniPEG-K(NF)) [BH8]	3

Same assay, conditions: relative to CPP 1 (100%); mean ± S.D. of three independent experiments

Substance	Cellular Uptake (MFI^NF, %), cytosolic delivery efficiency of CPPs without beta-hairpin moiety [%]
252 (RRFFFRQ; cyclic) [Peptide 252]	172 ± 24
241 (FFFRAQ; cyclic) [Peptide 241]	52 ± 2
266 (FFRRRRFQ; cyclic) [Peptide 266]	162 ± 16
277 (cyclo([dF][2Nal][dF][dR]R[dR]Q)) [Peptide 277]	267 ± 62
274 (cyclo([dF]F[dF]R[dR]RQ); SMILES N=C(N)NCCC[C@@H]1NC(=O)[C@@H](CCCNC(=N)N)NC(=O)[C@H](CCCNC(=N)N)NC(=O)[C@@H](Cc2ccccc2)NC(=O)[C@H](Cc2ccccc2)NC(=O)[C@@H](Cc2ccccc2)NC(=O)[C@H](CCC(N)=O)NC1=O) [Peptide 274]	359 ± 66
267 (FRRFFRRQ; cyclic) [Peptide 267]	127 ± 22
253 (FFRFRRQ; cyclic) [Peptide 253]	106 ± 22
282 (Ac-[Dap][dF]FR[dR]R[dR]D; lactam 1-8 (inferred); not fully specified; printed as Ac-(Dap-fFRrRrD)) [Peptide 282]	126 ± 33
244 (FRRFRRQ; cyclic) [Peptide 244]	31 ± 3
243 (FFRRRRQ; cyclic) [Peptide 243]	89 ± 27
269 (FFFRRRRRRQ; cyclic) [Peptide 269]	141 ± 10
285 (CFWRRRRC; disulfide 1-8) [Peptide 285]	49
238 (FRRFRQ; cyclic) [Peptide 238]	38 ± 10
264 (RRFFFRRQ; cyclic) [Peptide 264]	112 ± 20
131 (cyclo(F[2Nal]RRRRQ); SMILES N=C(N)NCCC[C@@H]1NC(=O)[C@H](CCCNC(=N)N)NC(=O)[C@H](CCCNC(=N)N)NC(=O)[C@H](Cc2ccc3ccccc3c2)NC(=O)[C@H](Cc2ccccc2)NC(=O)[C@H](CCC(N)=O)NC(=O)[C@H](CCCNC(=N)N)NC1=O) [Peptide 131]	100 ± 6
250 (FFRRRFQ; cyclic) [Peptide 250]	158 ± 21
276 (cyclo([dF]F[d2Nal][dR]R[dR]Q); also: further D-residues, places not given here) [Peptide 276]	250 ± 37
275 (cyclo(F[dF]F[dR]R[dR]Q); SMILES N=C(N)NCCC[C@@H]1NC(=O)[C@@H](CCCNC(=N)N)NC(=O)[C@H](Cc2ccccc2)NC(=O)[C@@H](Cc2ccccc2)NC(=O)[C@H](Cc2ccccc2)NC(=O)[C@H](CCC(N)=O)NC(=O)[C@@H](CCCNC(=N)N)NC1=O) [Peptide 275]	236 ± 26
262 (RRFFRRRQ; cyclic) [Peptide 262]	115 ± 20
255 (FRRFFRQ; cyclic) [Peptide 255]	109 ± 11
260 (FFFRRRRQ; cyclic) [Peptide 260]	122 ± 20
280 (cyclo([dF][2Nal][dR]R[dR]Q)) [Peptide 280]	214
272 (cyclo(F[dF]FR[dR]RQ); SMILES N=C(N)NCCC[C@@H]1NC(=O)[C@H](Cc2ccccc2)NC(=O)[C@@H](Cc2ccccc2)NC(=O)[C@H](Cc2ccccc2)NC(=O)[C@H](CCC(N)=O)NC(=O)[C@H](CCCNC(=N)N)NC(=O)[C@@H](CCCNC(=N)N)NC1=O) [Peptide 272]	230 ± 18
240 (cyclo(G[2Nal]RRRQ); SMILES N=C(N)NCCC[C@@H]1NC(=O)[C@H](Cc2ccc3ccccc3c2)NC(=O)CNC(=O)[C@H](CCC(N)=O)NC(=O)[C@H](CCCNC(=N)N)NC(=O)[C@H](CCCNC(=N)N)NC1=O) [Peptide 240]	49 ± 5
246 (RFFRRRQ; cyclic) [Peptide 246]	63 ± 19
278 (cyclo([d2Nal]F[dF][dR]R[dR]Q); also: further D-residues, places not given here) [Peptide 278]	50 ± 9
247 (RFRRFRQ; cyclic) [Peptide 247]	94 ± 9
261 (RFFRRRRQ; cyclic) [Peptide 261]	104 ± 5
248 (FRFRRRQ; cyclic) [Peptide 248]	132 ± 57
279 (cyclo(F[2Nal][dR]R[dR]Q)) [Peptide 279]	76
